Like-named read-outs stand apart in the source and are kept apart here.
Experiments:
Type in all cases: cell-based
[1] = test system: Mycobacterium marinum; experiment: Infection assay: intracellular M. marinum growth (luminescence) in D. discoideum; settings: for activity at 0.411523 µM / activity at 1.23457 µM / activity at 3.7037 µM / activity at 11.1111 µM / activity at 33.3333 µM / activity at 100 µM: 72 h; for activity at 0.411523 µM: conc 0.411522634 uM; for activity at 1.23457 µM: conc 1.234567901 uM; for activity at 3.7037 µM: conc 3.703703704 uM; for activity at 11.1111 µM: conc 11.11111111 uM; for activity at 33.3333 µM: conc 33.33333333 uM; for activity at 100 µM: conc 100 uM; for IC50: interpolated between the two concentrations closest to residual growth 0.5, top concentration 100 μM
Source text: (§1) Since fractions were not weighed individually, the injection mass was used to calculate an average mass per fraction and thus a nominal mass concentration.

[2] = test system: Mycobacterium marinum; experiment: Anti-biotic assay: M. marinum growth in broth (luminescence); settings: for activity at 0.411523 µM / activity at 1.23457 µM / activity at 3.7037 µM / activity at 11.1111 µM / activity at 33.3333 µM / activity at 100 µM: 72 h; for IC50: read-out: IC50 Mm in broth (μM)
Procedure: as §1
Plating bacteria and compounds or fractions was performed analogously to the infection assay described above. Bacteria growth was monitored with the Agilent BioTek H1 plate reader by recording luminescence at 32 °C.
The prepared plates were sealed and stored at 4 °C overnight. On the day of the experiment, nine 10 cm Petri dishes were infected (as described before) and grouped into three pools.

[3] = test system: Dictyostelium discoideum; experiment: Infection assay: growth of the host amoeba D. discoideum (fluorescence) in infection; settings: for activity at 0.411523 µM / activity at 1.23457 µM / activity at 3.7037 µM / activity at 11.1111 µM / activity at 33.3333 µM / activity at 100 µM: 72 h; for IC50: read-out: IC50 Dd in infection (μM)
Source text: as §1

[4] = vehicle control set at 1, read-out: mean normalized residual growth, Mm in infection
[5] = vehicle control set at 1, read-out: median normalized residual growth, Mm in infection
[6] = read-out: mean (normalised M. marinum growth, Mm in broth)
[7] = read-out: median (normalised M. marinum growth, Mm in broth)
[8] = read-out: mean normalized residual growth, Dd in infection
[9] = read-out: median normalized residual growth, Dd in infection

| SMILES | activity at 0.411523 µM [1, 4] [%] | activity at 0.411523 µM [1, 5] [%] | activity at 1.23457 µM [1, 4] [%] | activity at 1.23457 µM [1, 5] [%] | activity at 3.7037 µM [1, 4] [%] | activity at 3.7037 µM [1, 5] [%] | activity at 11.1111 µM [1, 4] [%] | activity at 11.1111 µM [1, 5] [%] | activity at 33.3333 µM [1, 4] [%] | activity at 33.3333 µM [1, 5] [%] | activity at 100 µM [1, 4] [%] | activity at 100 µM [1, 5] [%] | IC50 [1] [µM] | activity at 0.411523 µM [2, 6] [%] | activity at 1.23457 µM [2, 6] [%] | activity at 3.7037 µM [2, 6] [%] | activity at 11.1111 µM [2, 6] [%] | activity at 33.3333 µM [2, 6] [%] | activity at 100 µM [2, 6] [%] | activity at 0.411523 µM [2, 7] [%] | other results |
| --- | --- | --- | --- | --- | --- | --- | --- | --- | --- | --- | --- | --- | --- | --- | --- | --- | --- | --- | --- | --- | --- |
| Oc1ccc(/C=C/c2cc(O)c3c(c2)O[C@@H](c2ccc(O)cc2)[C@@H]3c2cc(O)c3c(c2)O[C@@H](c2ccc(O)cc2O)[C@H]3c2cc(O)cc(O)c2)cc1 [Compound 4, (−)-Gnetoline A] | 153 | 139 | 173 | 160 | 176 | 171 | 139 | 135 | 88.4 | 86.1 | 12.2 | 17.7 | 66.7 | 115 | 113 | 113 | 112 | 110 | 99.3 | 112 | activity at 1.23457 µM [2, 7]: 115%; activity at 3.7037 µM [2, 7]: 115%; activity at 11.1111 µM [2, 7]: 116%; activity at 33.3333 µM [2, 7]: 108%; activity at 100 µM [2, 7]: 99.5%; IC50 [2]: > 100 µM; activity at 0.411523 µM [3, 8]: 146%; activity at 1.23457 µM [3, 8]: 109%; activity at 3.7037 µM [3, 8]: 106%; activity at 11.1111 µM [3, 8]: 88.5%; activity at 33.3333 µM [3, 8]: 79%; activity at 100 µM [3, 8]: -10.4%; activity at 0.411523 µM [3, 9]: 96.5%; activity at 1.23457 µM [3, 9]: 84.4%; activity at 3.7037 µM [3, 9]: 85.1%; activity at 11.1111 µM [3, 9]: 79.5%; activity at 33.3333 µM [3, 9]: 79.5%; activity at 100 µM [3, 9]: 38.1%; IC50 [3]: 66.7 µM |
| Oc1ccc(/C=C/c2cc(O)c3c(c2)O[C@@H](c2ccc(O)cc2O)[C@@H]3c2cc(O)cc(O)c2)cc1 (relative stereo) [Compound 1, (+)-Gnetin D] | 93.5 | 93.7 | 114 | 117 | 153 | 154 | 171 | 172 | 168 | 169 | 86.4 | 83.4 | > 100 | 121 | 119 | 118 | 111 | 110 | 102 | 120 | activity at 1.23457 µM [2, 7]: 116%; activity at 3.7037 µM [2, 7]: 117%; activity at 11.1111 µM [2, 7]: 110%; activity at 33.3333 µM [2, 7]: 110%; activity at 100 µM [2, 7]: 102%; activity at 0.411523 µM [3, 8]: 161%; activity at 1.23457 µM [3, 8]: 111%; activity at 3.7037 µM [3, 8]: 113%; activity at 11.1111 µM [3, 8]: 81.5%; activity at 33.3333 µM [3, 8]: 58.3%; activity at 100 µM [3, 8]: 47.7%; activity at 0.411523 µM [3, 9]: 94.2%; activity at 1.23457 µM [3, 9]: 88.8%; activity at 3.7037 µM [3, 9]: 85.1%; activity at 11.1111 µM [3, 9]: 80.3%; activity at 33.3333 µM [3, 9]: 86.2%; activity at 100 µM [3, 9]: 82.6%; IC50 [3]: > 100 µM |
| Oc1ccc(/C=C/c2cc(O)c3c(c2)O[C@@H](c2ccc(O)cc2)[C@@H]3c2cc(O)c3c(c2)O[C@H](c2ccc(O)cc2)[C@H]3c2cc(O)cc(O)c2)cc1 [Compound 6, (−)-Gnetin E] | 165 | 154 | 202 | 184 | 196 | 172 | 169 | 155 | 98.2 | 95.4 | 46.3 | 49.1 | 66.7 | 134 | 114 | 113 | 114 | 118 | 110 | 135 | activity at 1.23457 µM [2, 7]: 109%; activity at 3.7037 µM [2, 7]: 114%; activity at 11.1111 µM [2, 7]: 114%; activity at 33.3333 µM [2, 7]: 119%; activity at 100 µM [2, 7]: 110%; IC50 [2]: > 100 µM; activity at 0.411523 µM [3, 8]: 119%; activity at 1.23457 µM [3, 8]: 116%; activity at 3.7037 µM [3, 8]: 112%; activity at 11.1111 µM [3, 8]: 114%; activity at 33.3333 µM [3, 8]: 95.3%; activity at 100 µM [3, 8]: 35.6%; activity at 0.411523 µM [3, 9]: 93.6%; activity at 1.23457 µM [3, 9]: 89.2%; activity at 3.7037 µM [3, 9]: 92%; activity at 11.1111 µM [3, 9]: 88.5%; activity at 33.3333 µM [3, 9]: 86.1%; activity at 100 µM [3, 9]: 56.8%; IC50 [3]: > 100 µM |
| Oc1ccc(C=Cc2cc(O)cc3c2C(c2cc(O)cc(O)c2)C(c2ccc(O)c4c2OC(c2ccc(O)cc2O)C4c2cc(O)cc(O)c2)O3)cc1 (single isomer, unassigned; (-)) [Compound 11, (−)-Gnetuhainin M] | 57.2 | 56.8 | 112 | 106 | 127 | 128 | 135 | 123 | 28.9 | 31.3 | -4.28 | 14.1 | 22.2 | 99 | 108 | 110 | 88.7 | 92.2 | 86.8 | 104 | activity at 1.23457 µM [2, 7]: 107%; activity at 3.7037 µM [2, 7]: 115%; activity at 11.1111 µM [2, 7]: 91.1%; activity at 33.3333 µM [2, 7]: 96.7%; activity at 100 µM [2, 7]: 83.5%; IC50 [2]: > 100 µM; activity at 0.411523 µM [3, 8]: 150%; activity at 1.23457 µM [3, 8]: 115%; activity at 3.7037 µM [3, 8]: 73.2%; activity at 11.1111 µM [3, 8]: 64.6%; activity at 33.3333 µM [3, 8]: 39.6%; activity at 100 µM [3, 8]: 11.1%; activity at 0.411523 µM [3, 9]: 87.9%; activity at 1.23457 µM [3, 9]: 94.4%; activity at 3.7037 µM [3, 9]: 85.9%; activity at 11.1111 µM [3, 9]: 83%; activity at 33.3333 µM [3, 9]: 90.3%; activity at 100 µM [3, 9]: 72.8%; IC50 [3]: > 100 µM |

From publication PMC12015462, “Prioritization of novel anti-infective stilbene derivatives by combining metabolomic data organization and a stringent 3R-infection model in a knowledge graph” (RSC Advances, 2025)
